No end group written: not given here. *: point of attachment. Palmitoyl = CCCCCCCCCCCCCCCC(=O)*
Tests used:
[1] = system: BMDM; experiment: cells; format: cell-based, mice; details: Mus musculus, read-out: inhibition of TNFα production (as a measure of protein synthesis)
[2] = system: bone marrow derived macrophages (BMDM); format: cell-based, mice
[3] = target: T1, human TLR2 (Homo sapiens, UniProt O60603); format: cell-based
T1 construct: using an HEK293 cell line stably transfected with cDNA encoding human TLR2

[4] = system: RAW264.7 cells; format: cell-based, murine
[5] = system: RAW264.7 cells; format: cell-based, murine; remark: listed apart in the source

T1 sequence (O60603 21-784): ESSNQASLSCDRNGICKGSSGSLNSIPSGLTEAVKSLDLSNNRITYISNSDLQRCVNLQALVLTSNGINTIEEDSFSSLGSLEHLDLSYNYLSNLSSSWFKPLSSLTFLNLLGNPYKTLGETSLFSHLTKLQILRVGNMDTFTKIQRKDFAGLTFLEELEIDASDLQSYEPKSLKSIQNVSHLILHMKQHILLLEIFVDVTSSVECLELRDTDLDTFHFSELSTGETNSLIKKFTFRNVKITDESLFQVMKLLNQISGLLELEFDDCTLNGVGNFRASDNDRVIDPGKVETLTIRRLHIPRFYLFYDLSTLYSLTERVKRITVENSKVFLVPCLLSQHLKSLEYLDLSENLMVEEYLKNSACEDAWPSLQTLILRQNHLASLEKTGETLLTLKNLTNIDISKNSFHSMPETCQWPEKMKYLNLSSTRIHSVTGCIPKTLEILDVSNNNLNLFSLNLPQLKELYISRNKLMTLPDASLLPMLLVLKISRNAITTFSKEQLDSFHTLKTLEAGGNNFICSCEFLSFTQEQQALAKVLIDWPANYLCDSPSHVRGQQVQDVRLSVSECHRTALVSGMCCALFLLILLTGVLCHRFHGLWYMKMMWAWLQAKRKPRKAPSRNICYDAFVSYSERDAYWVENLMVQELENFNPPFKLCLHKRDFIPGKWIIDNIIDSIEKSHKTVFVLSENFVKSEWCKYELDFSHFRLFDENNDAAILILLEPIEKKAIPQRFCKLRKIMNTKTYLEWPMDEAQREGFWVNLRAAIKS

Compound: C[C@@H]1C[C@@H]([C@H](O)CC2CC(=O)NC(=O)C2)C(=O)[C@@H](C)C1 [cycloheximide]
- inhibition at 0.5 µM [1]: ~90%
- effect on ability of wild-type or ΔlspA Mycobacterium tuberculosis to inhibit IFNγ induction of CIITA gene expression [2]: prevented

Compound: (S)-[2,3-Bis(palmitoyloxy)-(2-RS)-propyl]-(R)-Cys-(S)-Ser-(S)-Lys4×3 CF3COOH (CSKKKK; not fully specified (residue 1); also: 3 CF3COOH salt) [Pam2CSK4, diacylated analog of Pam3CSK4]
- activation of 293-TLR2 cells / secretion of IL-8 (in words) [3]: significant amounts of IL-8

Compound: (S)-[2,3-Bis(palmitoyloxy)-(2-RS)-propyl]-N-palmitoyl-(R)-Cys-(S)-Ser-(S)-Lys4-OH, 3HCl (Palmitoyl-CSKKKK-OH; not fully specified (residue 1); also: 3 HCl salt) [Pam3CSK4, synthetic triacylated hexapeptide, TLR2/TLR1 agonist]
- inhibition of IFNγ induction of surface MHC class II [4]: greater than 90%
- IFNγ induction of class II transactivator (CIITA) mRNA [5]: potently inhibited

Compound: macrophage-activating lipopeptide-2
- activation of 293-TLR2 cells / secretion of IL-8 (in words) [3]: significant amounts of IL-8

— patent publication US7566459B2, “Modified mycobacterium tuberculosis strains and uses thereof” (priority 2005, dated 2009)
